≈ marks a conversion by molar mass, not a printed value.

As usually defined, the MIC is the smallest concentration in the dilution series that meets the test's criterion for growth inhibition.

Format in all cases: functional
One assay relates to Aspergillus clavatus. The experiment in a line: Antifungal activity against Aspergillus clavatus MTCC 1323 assessed as growth inhibition after 48 hr by broth dilution method. The conditions noted are these: MTCC 1323, 48 h. On the technique in general: Dilution methods test growth across graded concentrations, often in twofold steps.
In a further assay the test system is Aspergillus niger. Briefly: Antifungal activity against Aspergillus niger MTCC 282 assessed as growth inhibition after 48 hr by broth dilution method. The following applies: MTCC 282, 48 h.
In another assay the test system is Candida albicans. Briefly: Antifungal activity against Candida albicans MTCC 227 assessed as growth inhibition after 48 hr by broth dilution method. The conditions noted are these: MTCC 227, 48 h.
Another assay deals with Streptococcus pyogenes. The experiment in a line: Antibacterial activity against Streptococcus pyogenes MTCC 442 assessed as growth inhibition after 24 hr by NCCLS broth dilution method. The following applies: MTCC 442, 24 h.
The test system of another assay is Staphylococcus aureus. Briefly: Antibacterial activity against Staphylococcus aureus MTCC 96 assessed as growth inhibition after 24 hr by NCCLS broth dilution method. The following applies: MTCC 96, 24 h.
For another assay, the system named is Pseudomonas aeruginosa. The experiment in a line: Antibacterial activity against Pseudomonas aeruginosa MTCC 1688 assessed as growth inhibition after 24 hr by NCCLS broth dilution method. The conditions noted are these: MTCC 1688, 24 h.
Another assay relates to Escherichia coli. Briefly: Antibacterial activity against Escherichia coli MTCC 443 assessed as growth inhibition after 24 hr by NCCLS broth dilution method. The following applies: MTCC 443, 24 h.

As to `CC1=N/C(=C\c2ccccc2[N+](=O)[O-])C(=O)N1c1ccc(/C(C)=N/N=C2/NC(=O)CS2)cc1`, the minimum inhibitory concentration (MIC) in the assay with Aspergillus clavatus is 500 µg/mL (≈ 1080 µM); in the assay on Aspergillus niger, 500 µg/mL (≈ 1080 µM); in the assay on Candida albicans it was 500 µg/mL (≈ 1080 µM); with Streptococcus pyogenes it was 100 µg/mL (≈ 216 µM); in the assay on Staphylococcus aureus, 250 µg/mL (≈ 541 µM); in the assay with Pseudomonas aeruginosa, 500 µg/mL (≈ 1080 µM). For the same compound, in the assay on Escherichia coli, the minimal inhibitory concentration (MIC) was found to be 100 µg/mL (≈ 216 µM).
Consider `CC1=N/C(=C\c2ccccc2O)C(=O)N1c1ccc(/C(C)=N/N=C2/NC(=O)CS2)cc1`, for which the MIC came out at 100 µg/mL (≈ 231 µM) with Aspergillus clavatus; 50 µg/mL (≈ 115 µM) in the assay on Aspergillus niger; 100 µg/mL (≈ 231 µM) in the assay on Candida albicans; 100 µg/mL (≈ 231 µM) with Streptococcus pyogenes; 250 µg/mL (≈ 577 µM) in the assay with Staphylococcus aureus; 25 µg/mL (≈ 57.7 µM) in the assay on Pseudomonas aeruginosa. The minimum inhibitory concentration (MIC) in the assay on Escherichia coli worked out at 100 µg/mL (≈ 231 µM).

(Values after ChEMBL document CHEMBL3046556, “Microwave-assisted synthesis and antimicrobial screening of new imidazole derivatives bearing 4-thiazolidinone nucleus” (2013).)
